Test results from paper PMC10977697 (PLOS ONE, 2024).
Where no end group is shown, it is not given here.

The sequences below were run on EpCAM (assay: Spot phage ELISA, EpCAM). Details: spot phage ELISA signal-to-noise on EpCAM.
Format: binding, human
Work on “GPTQSHYGQCGGKGYPGYIVCSGTTCQMVNQSHSQCLPGAS (disulfide (positions not given here)) [EpCAM CBD 55]” yielded a S/N of 9.4.
“GPTQSHYGQCGGKGYQGAMKCSGTTCQYIFFPTSQCLPGAS (disulfide (positions not given here)) [EpCAM CBD 64]” showed a S/N of 8.6.
With “GPTQSHYGQCGGKGYRGAIRCSGTTCQYIREFTSQCLPGAS (disulfide (positions not given here)) [EpCAM CBD 43]” the S/N was 11.4.
“GPTQSHYGQCGGLGYAGAIVCSGTTCQYTIRNPSQCLPGAS (disulfide (positions not given here)) [EpCAM CBD 65]” was tested, and the S/N was 8.6.
“GPTQSHYGQCGGLGYHGAIMCSGTTCQYAPIVTSQCLPGAS (disulfide (positions not given here)) [EpCAM CBD 52]” gave a S/N of 9.8.
Work on “GPTQSHYGQCGGLGYLGMMQCSGTTCQYIQREISQCLPGAS (disulfide (positions not given here)) [EpCAM CBD 29]” yielded a S/N of 15.7.
“GPTQSHYGQCGGLGYQGGMMCSGTTCQYVPIWRSQCLPGAS (disulfide (positions not given here)) [EpCAM CBD 17]” showed a S/N of 18.6.
With “GPTQSHYGQCGGLGYTGAIVCSGTTCQWKQLMRSQCLPGAS (disulfide (positions not given here)) [EpCAM CBD 24]” the S/N was 16.9.
Sequence “GPTQSHYGQCGGLGYVGAMQCSGTTCQYVVRNFSQCLPGAS (disulfide (positions not given here)) [EpCAM CBD 28]” has a S/N of 16.2.
Work on “GPTQSHYGQCGGMGYHGAISCSGTTCQPIIFPVSQCLPGAS (disulfide (positions not given here)) [EpCAM CBD 19]” yielded a S/N of 17.9.
“GPTQSHYGQCGGMGYHGFIVCSGTTCQHMMPTTSQCLPGAS (disulfide (positions not given here)) [EpCAM CBD 12]” gave a S/N of 19.8.
For “GPTQSHYGQCGGMGYKGIMCSGTTCQHAYIFRSQCLPGAS (disulfide (positions not given here)) [EpCAM CBD 49]”, the S/N was 10.2.
Sequence “GPTQSHYGQCGGMGYQGMIKCSGTTCQYVARQASQCLPGAS (disulfide (positions not given here)) [EpCAM CBD 47]” has a S/N of 10.5.
Sequence “GPTQSHYGQCGGNGYMGVISCSGTTCQEIQMQRSQCLPGAS (disulfide (positions not given here)) [EpCAM CBD 90]” has a S/N of 4.8.
For “GPTQSHYGQCGGPGYFGXVVCSGTTCQFAHIHRSQCLPGAS (disulfide) [EpCAM CBD 85]”, the S/N was 6.6.
“GPTQSHYGQCGGPGYLGVIVCSGTTCQYQLRPTSQCLPGAS (disulfide (positions not given here)) [EpCAM CBD 70]” gave a S/N of 8.4.
With “GPTQSHYGQCGGPGYPGYIRCSGTTCQWIHSRTSQCLPGAS (disulfide (positions not given here)) [EpCAM CBD 89]” the S/N was 5.8.
“GPTQSHYGQCGGPGYQGFIVCSGTTCQYRQPSESQCLPGAS (disulfide (positions not given here)) [EpCAM CBD 2]” gave a S/N of 24.7.
“GPTQSHYGQCGGPGYTGVIKCSGTTCQFVNLPRSQCLPGAS (disulfide (positions not given here)) [EpCAM CBD 51]” gave a S/N of 9.8.
With “GPTQSHYGQCGGPGYVGSIMCSGTTCQFQYIPTSQCLPGAS (disulfide (positions not given here)) [EpCAM CBD 23]” the S/N was 16.9.
In the case of “GPTQSHYGQCGGPGYYGAIVCSGTTCQHTFITHSQCLPGAS (disulfide (positions not given here)) [EpCAM CBD 57]”, the S/N is reported as 9.3.
“GPTQSHYGQCGGQGYHGAILCSGTTCQYTMISRSQCLPGAS (disulfide (positions not given here)) [EpCAM CBD 5]” showed a S/N of 22.8.
With “GPTQSHYGQCGGQGYHGMIRCSGTTCQWVPMVRSQCLPGAS (disulfide (positions not given here)) [EpCAM CBD 39]” the S/N was 12.6.
In the case of “GPTQSHYGQCGGQGYHGYIMCSGTTCQYYTPYTSQCLPGAS (disulfide (positions not given here)) [EpCAM CBD 68]”, the S/N is reported as 8.5.
“GPTQSHYGQCGGQGYIGAIMCSGTTCQMRSLPASQCLPGAS (disulfide (positions not given here)) [EpCAM CBD 20]” showed a S/N of 17.5.
In the case of “GPTQSHYGQCGGQGYYGAIMCSGTTCQWEPARKSQCLPGAS (disulfide (positions not given here)) [EpCAM CBD 31]”, the S/N is reported as 15.3.
Sequence “GPTQSHYGQCGGRGYFGAIICSGTTCQYVQKHMSQCLPGAS (disulfide (positions not given here)) [EpCAM CBD 9]” has a S/N of 20.9.
In the case of “GPTQSHYGQCGGRGYFGALRCSGTTCQYVTMIESQCLPGAS (disulfide (positions not given here)) [EpCAM CBD 80]”, the S/N is reported as 7.3.
Sequence “GPTQSHYGQCGGRGYKGAIVCSGTTCQVAQMYQSQCLPGAS (disulfide (positions not given here)) [EpCAM CBD 86]” has a S/N of 6.6.
“GPTQSHYGQCGGRGYPGAMVCSGTTCQWHQPLRSQCLPGAS (disulfide (positions not given here)) [EpCAM CBD 60]” was tested, and the S/N was 8.9.
“GPTQSHYGQCGGRGYPGAVICSGTTCQYHQATRSQCLPGAS (disulfide (positions not given here)) [EpCAM CBD 73]” gave a S/N of 7.8.
“GPTQSHYGQCGGRGYPGAVVCSGTTCQYAVVPHSQCLPGAS (disulfide (positions not given here)) [EpCAM CBD 14]” gave a S/N of 19.4.
“GPTQSHYGQCGGRGYPGFIRCSGTTCQFVQSVQSQCLPGAS (disulfide (positions not given here)) [EpCAM CBD 78]” showed a S/N of 7.4.
“GPTQSHYGQCGGRGYPGRMVCSGTTCQYVAPMISQCLPGAS (disulfide (positions not given here)) [EpCAM CBD 27]” was tested, and the S/N was 16.6.
“GPTQSHYGQCGGRGYVGAIACSGTTCQFTPPRSSQCLPGAS (disulfide (positions not given here)) [EpCAM CBD 87]” gave a S/N of 6.1.
“GPTQSHYGQCGGRGYVGALMCSGTTCQYIAKPVSQCLPGAS (disulfide (positions not given here)) [EpCAM CBD 4]” gave a S/N of 23.5.
Sequence “GPTQSHYGQCGGRGYVGGIKCSGTTCQOVHAHPSQCLPGAS (disulfide) [EpCAM CBD 72]” has a S/N of 8.0.
With “GPTQSHYGQCGGRGYWGMAICSGTTCQAQTRMISQCLPGAS (disulfide (positions not given here)) [EpCAM CBD 42]” the S/N was 11.4.
In the case of “GPTQSHYGQCGGSGYHGAILCSGTTCQYVEVSRSQCLPGAS (disulfide (positions not given here)) [EpCAM CBD 10]”, the S/N is reported as 20.7.
With “GPTQSHYGQCGGSGYKGAIKCSGTTCQLVTVHVSQCLPGAS (disulfide (positions not given here)) [EpCAM CBD 46]” the S/N was 10.7.
“GPTQSHYGQCGGSGYKGVIVCSGTTCQYKIMTMSQCLPGAS (disulfide (positions not given here)) [EpCAM CBD 44]” showed a S/N of 11.1.
“GPTQSHYGQCGGSGYPGAVVCSGTTCQWRQVPRSQCLPGAS (disulfide (positions not given here)) [EpCAM CBD 18]” was tested, and the S/N was 18.3.
In the case of “GPTQSHYGQCGGSGYPGHFLCSGTTCQTPRSWSSQCLPGAS (disulfide (positions not given here)) [EpCAM CBD 82]”, the S/N is reported as 6.9.
“GPTQSHYGQCGGSGYWGAIACSGTTCQMVKLPYSQCLPGAS (disulfide (positions not given here)) [EpCAM CBD 69]” showed a S/N of 8.5.
Sequence “GPTQSHYGQCGGSGYYGAIMCSGTTCQYMRAMQSQCLPGAS (disulfide (positions not given here)) [EpCAM CBD 79]” has a S/N of 7.4.
“GPTQSHYGQCGGSGYYGVIVCSGTTCQYVNRKPSQCLPGAS (disulfide (positions not given here)) [EpCAM CBD 36]” gave a S/N of 13.1.
“GPTQSHYGQCGGSGYYGYIVCSGTTCQFKPSGRSQCLPGAS (disulfide (positions not given here)) [EpCAM CBD 81]” showed a S/N of 7.0.
“GPTQSHYGQCGGTGYFGMMRCSGTTCQHVFLERSQCLPGAS (disulfide (positions not given here)) [EpCAM CBD 53]” showed a S/N of 9.5.
For “GPTQSHYGQCGGTGYHGVMLCSGTTCQLWAHPLSQCLPGAS (disulfide (positions not given here)) [EpCAM CBD 11]”, the S/N was 20.6.
For “GPTQSHYGQCGGTGYPGAMVCSGTTCQLFELXVSQCLPGAS (disulfide) [EpCAM CBD 74]”, the S/N was 7.8.
“GPTQSHYGQCGGTGYVGAHVCSGTTCQFVYRDFSQCLPGAS (disulfide (positions not given here)) [EpCAM CBD 48]” gave a S/N of 10.5.
With “GPTQSHYGQCGGTGYVGMFKCSGTTCQYVYSSASQCLPGAS (disulfide (positions not given here)) [EpCAM CBD 67]” the S/N was 8.5.
“GPTQSHYGQCGGTGYVGYTRCSGTTCQTVPAVMSQCLPGAS (disulfide (positions not given here)) [EpCAM CBD 16]” gave a S/N of 18.9.
Work on “GPTQSHYGQCGGVGYHGAIQCSGTTCQEVKMTRSQCLPGAS (disulfide (positions not given here)) [EpCAM CBD 3]” yielded a S/N of 23.5.
With “GPTQSHYGQCGGVGYHGMIVCSGTTCQWKPSVYSQCLPDAS (disulfide (positions not given here)) [EpCAM CBD 76]” the S/N was 7.6.
For “GPTQSHYGQCGGVGYVGSILCSGTTCQFTKVRTSQCLPGAS (disulfide (positions not given here)) [EpCAM CBD 50]”, the S/N was 9.9.
With “GPTQSHYGQCGGWGYQGWAICSGTTCQAQLSHKSQCLPGAS (disulfide (positions not given here)) [EpCAM CBD 83]” the S/N was 6.8.
“GPTQSHYGQCGGXGYNGXIVCSGTTCQYXRKSKSQCLPGAS (disulfide) [EpCAM CBD 61]” gave a S/N of 8.8.
With “GPTQSHYGQCGGYGYPGLACSGTTCQYTYYMRSQCLPGAS (disulfide (positions not given here)) [EpCAM CBD 71]” the S/N was 8.3.
“GPTQSHYGQCGGYGYQGMMMCSGTTCQYVRHKVSQCLPGAS (disulfide (positions not given here)) [EpCAM CBD 30]” showed a S/N of 15.6.
“GPTQSHYGQCGGYVGAIMCSGTTCQFQHVKQSQCLPGAS (disulfide (positions not given here)) [EpCAM CBD 38]” gave a S/N of 12.9.
